Source: PMC6008489 (Bioorganic & Medicinal Chemistry, 2018)

Assays:
GSK3b = target: T1, GSK3b (Homo sapiens, UniProt P49841); experiment: 26-kinase panel mobility shift assay, single concentration; type: biochemical; conditions: read-out: % Inhibition GSK3
T1 construct: purchased Perkin Elmer (ProfilerPro assay kit 1)
Method: (§1) A mobility shift assay to determine kinase inhibition was carried out using a
(§2) modified version of the ProfilerPro assay kit 1 (Perkin Elmer, Coventry, UK)
(§3) including MPS1 and Aurora B. Each kit contained an enzyme plate, a substrate
(§4) plate, reconstitution buffer, 1 M DTT, protease inhibitor cocktail and termination
(§5) buffer. Test compounds were added as a solution in DMSO.
(§6) peptide phosphorylation assay was carried out as per the manufacturer’s
(§7) instructions. The electrophoretic separation and analysis of the phosphorylated
(§8) and non-phosphorylated peptides was carried out on a 4-sipper chip using a
(§9) LabChip EZReader II (Perkin Elmer). Results were expressed as % inhibition of
(§10) peptide phosphorylation relative to control wells for 0 % (no test compound) and
(§11) 100 % (no ATP) inhibition. The percentage inhibition was calculated using the
(§12) % Inhibition = [1 - (% Conversion Sample / % Conversion 0% Inhibition Control)] x 100

PKCζ = target: T2, PKCζ (Homo sapiens, UniProt Q05513); experiment: as above; type: biochemical; conditions: read-out: % Inhibition PKC
T2 construct: purchased Perkin Elmer (ProfilerPro assay kit 1)
T2 sequence (Q05513 1-592): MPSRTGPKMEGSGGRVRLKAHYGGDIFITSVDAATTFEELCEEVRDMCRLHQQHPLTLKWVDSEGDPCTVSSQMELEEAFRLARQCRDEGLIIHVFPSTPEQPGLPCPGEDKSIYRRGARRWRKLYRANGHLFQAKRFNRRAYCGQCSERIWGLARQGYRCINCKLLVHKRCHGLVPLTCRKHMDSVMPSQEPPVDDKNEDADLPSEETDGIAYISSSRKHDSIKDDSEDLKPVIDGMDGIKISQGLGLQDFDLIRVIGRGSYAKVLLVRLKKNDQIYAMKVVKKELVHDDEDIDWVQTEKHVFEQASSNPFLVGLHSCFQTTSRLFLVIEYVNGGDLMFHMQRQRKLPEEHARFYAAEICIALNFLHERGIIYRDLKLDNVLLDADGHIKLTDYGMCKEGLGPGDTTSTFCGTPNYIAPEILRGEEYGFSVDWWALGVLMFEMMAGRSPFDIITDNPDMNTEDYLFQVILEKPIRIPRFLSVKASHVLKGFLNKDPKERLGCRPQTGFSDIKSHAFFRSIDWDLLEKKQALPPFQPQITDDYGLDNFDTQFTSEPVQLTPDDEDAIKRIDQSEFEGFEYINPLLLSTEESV
Method: (§13) In order to test the biochemical activity of our fragment library, a panel of 26 structurally diverse protein kinases was used.
Mobility Shift Assay Protocol
(§14) Screening of 26 kinases using a mobility shift assay
as §1, §2, §3, §4, §5
final concentration. […] The
as §6, §7, §8, §9, §10, §11, §12

SRC = target: T3, SRC (Homo sapiens, UniProt P12931); experiment: as above; type: biochemical; conditions: read-out: % Inhibition SRC
T3 construct: purchased Perkin Elmer (ProfilerPro assay kit 1)
T3 sequence (P12931 whole entry): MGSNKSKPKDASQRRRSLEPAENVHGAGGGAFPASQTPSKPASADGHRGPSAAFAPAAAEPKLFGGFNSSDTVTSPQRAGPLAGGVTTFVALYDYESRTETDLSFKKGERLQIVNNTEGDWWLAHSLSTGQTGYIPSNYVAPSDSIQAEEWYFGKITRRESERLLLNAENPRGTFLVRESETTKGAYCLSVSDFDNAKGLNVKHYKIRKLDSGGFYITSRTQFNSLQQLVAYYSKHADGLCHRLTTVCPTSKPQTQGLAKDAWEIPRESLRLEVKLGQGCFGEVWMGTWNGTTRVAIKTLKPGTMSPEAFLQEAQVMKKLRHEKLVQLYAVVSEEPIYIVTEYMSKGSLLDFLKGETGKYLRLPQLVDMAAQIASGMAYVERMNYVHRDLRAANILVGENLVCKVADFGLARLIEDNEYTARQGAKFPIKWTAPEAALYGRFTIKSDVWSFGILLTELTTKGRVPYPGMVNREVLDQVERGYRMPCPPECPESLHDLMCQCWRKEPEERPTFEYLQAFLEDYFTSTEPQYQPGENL
Method: as §13, §14, §1, §2, §3, §4, §5, §6, §7, §8, §9, §10, §11, §12

MAPKAPK2 = target: T4, MAPKAPK2 (Homo sapiens, UniProt P49137); experiment: as above; type: biochemical; conditions: read-out: % Inhibition MAPKAPK2
T4 construct: purchased Perkin Elmer (ProfilerPro assay kit 1)
T4 sequence (P49137 whole entry): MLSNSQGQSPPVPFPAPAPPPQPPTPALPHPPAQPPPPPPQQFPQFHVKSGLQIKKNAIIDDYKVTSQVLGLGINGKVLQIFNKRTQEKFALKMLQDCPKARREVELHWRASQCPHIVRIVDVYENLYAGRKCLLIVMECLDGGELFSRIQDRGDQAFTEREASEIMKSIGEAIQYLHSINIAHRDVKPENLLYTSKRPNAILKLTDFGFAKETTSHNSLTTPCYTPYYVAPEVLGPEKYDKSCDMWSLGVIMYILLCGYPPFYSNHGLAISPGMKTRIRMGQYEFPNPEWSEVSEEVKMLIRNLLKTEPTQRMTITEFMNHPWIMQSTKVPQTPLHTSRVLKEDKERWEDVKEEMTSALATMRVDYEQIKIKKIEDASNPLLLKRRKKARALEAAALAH
Method: as §1, §2, §3, §4, §5, §6, §7, §8, §9, §10, §11, §12

PKA = target: T5, PKA (Homo sapiens, UniProt P17612); experiment: as above; type: biochemical; conditions: read-out: % Inhibition PKA
T5 construct: purchased Perkin Elmer (ProfilerPro assay kit 1)
Method: as §13
Mobility Shift Assay Protocol
as §14, §1, §2, §3, §4, §5
final concentration. […] The
as §6, §7, §8, §9, §10, §11, §12

AurA = target: T6, AurA (Homo sapiens, UniProt O14965); experiment: as above; type: biochemical; conditions: read-out: % Inhibition AurA
T6 construct: purchased Perkin Elmer (ProfilerPro assay kit 1)
T6 sequence (O14965 1-403): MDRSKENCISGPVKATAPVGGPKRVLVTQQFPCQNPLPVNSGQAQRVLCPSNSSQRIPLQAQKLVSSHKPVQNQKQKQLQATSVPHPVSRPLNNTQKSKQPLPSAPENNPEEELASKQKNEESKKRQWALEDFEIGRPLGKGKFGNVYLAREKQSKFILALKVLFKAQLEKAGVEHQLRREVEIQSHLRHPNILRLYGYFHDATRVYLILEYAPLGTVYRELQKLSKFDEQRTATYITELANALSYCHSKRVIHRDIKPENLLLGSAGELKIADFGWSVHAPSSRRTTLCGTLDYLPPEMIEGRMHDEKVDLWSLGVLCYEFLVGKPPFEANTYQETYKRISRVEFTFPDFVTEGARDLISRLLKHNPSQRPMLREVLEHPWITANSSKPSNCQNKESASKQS
Method: Mobility Shift Assay Protocol
as §14, §1, §2, §3, §4, §5, §6, §7, §8, §9, §10, §11, §12

[1] = Solubility as noted for the kinase panel screen; type: physicochemical; conditions: reason for screening at 30 µM instead of 100 µM

T1 sequence (P49841 whole entry): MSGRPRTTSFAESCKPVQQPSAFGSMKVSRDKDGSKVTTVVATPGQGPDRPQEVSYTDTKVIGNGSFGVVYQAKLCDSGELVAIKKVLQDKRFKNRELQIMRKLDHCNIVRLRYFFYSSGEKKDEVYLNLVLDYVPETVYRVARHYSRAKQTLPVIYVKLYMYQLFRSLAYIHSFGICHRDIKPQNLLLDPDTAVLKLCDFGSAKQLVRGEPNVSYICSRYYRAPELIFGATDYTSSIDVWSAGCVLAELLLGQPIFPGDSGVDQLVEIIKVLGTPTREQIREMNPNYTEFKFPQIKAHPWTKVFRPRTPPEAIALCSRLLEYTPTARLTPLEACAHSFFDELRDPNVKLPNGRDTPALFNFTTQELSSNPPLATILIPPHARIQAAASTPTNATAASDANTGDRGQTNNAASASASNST

Structure (SMILES)	inhibition at 100 µM (GSK3b) [%]	inhibition at 100 µM (PKCζ) [%]	inhibition at 100 µM (SRC) [%]	inhibition at 100 µM (MAPKAPK2) [%]	inhibition at 100 µM (PKA) [%]	inhibition at 100 µM (AurA) [%]	inhibition at 30 µM (GSK3b) [%]	solubility (in words) [1]	inhibition at 30 µM (PKCζ) [%]	inhibition at 30 µM (SRC) [%]	inhibition at 30 µM (MAPKAPK2) [%]	inhibition at 30 µM (PKA) [%]	inhibition at 30 µM (AurA) [%]	melting point [°C]
CNc1nccc(-c2c[nH]c(=O)c(N)c2)n1 [Compound 7]	89	37	89	79	81	98	–	–	–	–	–	–	–	–
Nc1cc(-c2ccnc(NC3CC3)n2)c[nH]c1=O [Compound 8]	87	0	46	28	8	87	–	–	–	–	–	–	–	–
O=C(Nc1cc(-c2ccnc(NC3CC3)n2)c[nH]c1=O)c1ccccc1 [Compound 24]	–	–	–	–	–	–	99	poor solubility	0	99	96	75	99	–
Cc1nc(O)c(N)cc1-c1ccncc1 [Compound 15, 3-Amino-6-methyl-5-(pyridin-4-yl)pyridin-2-one]	39	13	21	33	0	49	–	–	–	–	–	–	–	–
Cn1cc(-c2c[nH]c(=O)c(N)c2)cn1 [Compound 2, 3-Amino-5-(1-methyl-1H-pyrazol-4-yl)pyridin-2(1H)-one]	68	83	86	97	66	100	–	–	–	–	–	–	–	264
Nc1ccc[nH]c1=O [Compound 1, 3-aminopyridin-2-one]	17	27	31	25	0	58	–	–	–	–	–	–	–	–
CN1CCN(c2ccc(C(=O)Nc3cc(-c4ccncc4)c[nH]c3=O)cc2)CC1 [Compound 22]	–	–	–	–	–	–	94	poor solubility	24	98	12	0	92	–
Nc1cc(-c2ccnc3ccccc23)c[nH]c1=O [Compound 6]	20	17	24	32	48	62	–	–	–	–	–	–	–	–
COc1ncc(-c2ccncc2)cc1N [Compound 5, 6-Methoxy-3,4′-bipyridin-5-amine]	26	5	8	19	52	46	–	–	–	–	–	–	–	–
O=C(Nc1cc(-c2ccncc2)c[nH]c1=O)c1ccccc1 [Compound 16, N-(2-Oxo-5-(pyridin-4-yl)-1,2-dihydropyridin-3-yl)benzamide]	–	–	–	–	–	–	92	poor solubility	0	60	29	0	59	–
